Assays:
CDK1/CycB = molecular target: T1, CDK1/CycB (Homo sapiens, UniProt P06493); assay: CDK1/CycB kinase assay (Assay 1); format: biochemical; conditions: 0.5 μM ATP, histon IIIS substrate; read-out: CDK1/CycB (Assay 1) Concentration for 50% inhibition of enzyme activity, IC50
T1 construct: purchased ProQinase GmbH, Freiburg; host or cells: baculovirus-infected insect cells (Sf9)
Experimental: 10.1 Assay 1: CDK1/CycB Kinase Assay
Recombinant CDK1 and CycB-GST fusion proteins, purified from baculovirus-infected insect cells (Sf9), were purchased from ProQinase GmbH, Freiburg. The histon IIIS used as kinase substrate is commercially available from the company Sigma.
CDK1/CycB (200 ng/measuring point) was incubated for 10 min at 22° C. in the presence of various concentrations of test substances (0 μM, and within the range 0.01-100 μM) in assay buffer [50 mM Tris/HCl pH8.0, 10 mM MgCl2, 0.1 mM Na ortho-vanadate, 1.0 mM dithiothreitol, 0.5 μM adenosine triphosphate (ATP), 10 μg/measuring point histon IIIS, 0.2 μCi/measuring point ^33P-gamma ATP, 0.05% NP40, 1.25% dimethylsulfoxide]. The reaction was stopped by adding EDTA solution (250 mM, pH8.0, 15 μl/measuring point).
(§1) From each reaction mixture, 15 μl was applied to P30 filter strips (from Wallac), and unincorporated ^33P-ATP was removed by washing the filter strips three times, for 10 min each time, in 0.5% phosphoric acid. After drying the filter strips for 1 hour at 70° C., the filter strips were covered with scintillator strips (MeltiLex™ A, from Wallac) and stoved for 1 hour at 90° C. The amount of incorporated ^33P (substrate phosphorylation) was determined by scintillation measurement in a gamma-radiation measuring instrument (Wallac). The measured data were standardized to 0% inhibition (enzyme reaction without inhibitor) and 100% inhibition (all assay components except enzyme). The IC50 values were determined by means of a 4-parameter fit using the company's own software.

[1] = molecular target: T2, VEGF receptor tyrosine kinase-2 (Homo sapiens, UniProt P35968); assay: VEGF receptor-2 kinase assay (Assay 3); format: biochemical; conditions: 8 μM ATP, poly-(Glu4Tyr) substrate; read-out: VEGF-R2 (Assay 3) Concentration for 50% inhibition of enzyme activity, IC50
T2 construct: GST; made in house; host or cells: baculovirus-infected insect cells (Sf9)
Experimental: 10.3 Assay 3: VEGF Receptor-2 Kinase Assay
Recombinant VEGF receptor tyrosine kinase-2 was purified as GST fusion protein from baculovirus-infected insect cells (Sf9). Poly-(Glu4Tyr), used as kinase substrate, was purchased from the company Sigma.
VEGF receptor tyrosine kinase (90 ng/measuring point) was incubated for 10 min at 22° C. in the presence of various concentrations of test substances (0 μM, and within the range 0.001-30 μM) in 30 μl assay buffer [40 mM Tris/HCl pH5.5, 10 mM MgCl2, 1 mM MnCl2, 3 μM Na ortho-vanadate, 1.0 mM dithiothreitol, 8 μM adenosine triphosphate (ATP), 0.96 μg/measuring point poly-(Glu4Tyr), 0.2 μCi/measuring point ^33P-gamma ATP, 1.4% dimethylsulfoxide]. The reaction was stopped by adding EDTA solution (250 mM, pH8.0, 15 μl/measuring point).
as §1

T2 sequence (P35968 20-1356): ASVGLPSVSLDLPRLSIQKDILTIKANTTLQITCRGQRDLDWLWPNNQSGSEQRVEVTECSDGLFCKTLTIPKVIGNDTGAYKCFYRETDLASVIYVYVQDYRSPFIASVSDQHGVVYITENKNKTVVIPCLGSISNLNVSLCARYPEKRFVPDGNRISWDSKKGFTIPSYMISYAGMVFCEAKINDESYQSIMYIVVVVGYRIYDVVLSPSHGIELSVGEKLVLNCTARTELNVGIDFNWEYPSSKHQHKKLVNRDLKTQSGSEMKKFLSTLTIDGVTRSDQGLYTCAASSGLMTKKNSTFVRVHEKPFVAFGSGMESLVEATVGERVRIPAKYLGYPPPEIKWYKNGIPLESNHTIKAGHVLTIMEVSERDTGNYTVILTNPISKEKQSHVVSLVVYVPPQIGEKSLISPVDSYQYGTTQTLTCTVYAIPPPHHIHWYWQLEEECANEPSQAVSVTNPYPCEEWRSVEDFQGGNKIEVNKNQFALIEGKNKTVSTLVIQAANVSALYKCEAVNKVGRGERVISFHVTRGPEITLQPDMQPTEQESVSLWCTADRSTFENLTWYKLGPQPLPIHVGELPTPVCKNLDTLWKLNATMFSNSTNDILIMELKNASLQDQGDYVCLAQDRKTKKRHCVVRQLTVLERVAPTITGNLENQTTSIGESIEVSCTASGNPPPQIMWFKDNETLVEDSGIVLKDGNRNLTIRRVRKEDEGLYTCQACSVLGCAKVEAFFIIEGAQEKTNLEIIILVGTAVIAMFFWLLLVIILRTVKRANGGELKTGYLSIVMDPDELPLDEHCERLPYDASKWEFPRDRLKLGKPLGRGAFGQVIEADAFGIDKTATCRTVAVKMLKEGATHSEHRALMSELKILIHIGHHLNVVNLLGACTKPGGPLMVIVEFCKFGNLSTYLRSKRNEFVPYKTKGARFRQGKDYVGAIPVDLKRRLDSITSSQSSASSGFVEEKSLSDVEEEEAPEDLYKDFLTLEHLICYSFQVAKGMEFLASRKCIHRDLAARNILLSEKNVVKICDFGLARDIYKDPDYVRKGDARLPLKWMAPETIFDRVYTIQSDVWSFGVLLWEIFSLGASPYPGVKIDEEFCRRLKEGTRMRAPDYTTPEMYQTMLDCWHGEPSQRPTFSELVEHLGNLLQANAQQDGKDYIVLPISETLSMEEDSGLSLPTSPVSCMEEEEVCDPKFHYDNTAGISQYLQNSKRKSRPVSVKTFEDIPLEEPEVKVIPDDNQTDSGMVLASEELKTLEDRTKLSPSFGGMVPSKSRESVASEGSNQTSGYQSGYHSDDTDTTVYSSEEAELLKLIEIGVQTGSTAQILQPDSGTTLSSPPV
T1 sequence (P06493 whole entry): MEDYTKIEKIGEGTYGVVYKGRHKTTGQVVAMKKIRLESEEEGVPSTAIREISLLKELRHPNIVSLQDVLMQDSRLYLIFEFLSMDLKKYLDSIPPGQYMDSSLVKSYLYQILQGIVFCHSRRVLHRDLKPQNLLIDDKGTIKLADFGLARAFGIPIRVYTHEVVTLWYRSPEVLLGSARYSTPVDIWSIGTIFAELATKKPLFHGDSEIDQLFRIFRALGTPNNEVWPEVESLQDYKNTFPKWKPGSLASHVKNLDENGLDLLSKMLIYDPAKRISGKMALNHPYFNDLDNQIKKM
T1 sequence (P14635 whole entry partner): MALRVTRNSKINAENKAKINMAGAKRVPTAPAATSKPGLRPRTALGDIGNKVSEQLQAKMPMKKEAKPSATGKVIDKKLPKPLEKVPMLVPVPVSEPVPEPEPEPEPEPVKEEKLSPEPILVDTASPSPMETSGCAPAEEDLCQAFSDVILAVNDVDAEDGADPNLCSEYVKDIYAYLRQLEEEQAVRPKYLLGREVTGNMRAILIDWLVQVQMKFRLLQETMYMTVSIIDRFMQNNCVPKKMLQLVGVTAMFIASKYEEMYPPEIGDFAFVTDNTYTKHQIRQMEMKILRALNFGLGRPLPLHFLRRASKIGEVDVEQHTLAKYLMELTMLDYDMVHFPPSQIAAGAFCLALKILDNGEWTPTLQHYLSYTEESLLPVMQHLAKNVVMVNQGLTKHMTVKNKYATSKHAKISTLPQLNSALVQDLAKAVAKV

Compound | IC50 (CDK1/CycB) | IC50 [1]
CCS(=N)(=O)c1ccc(Nc2ncc(Br)c(N[C@H](C)[C@@H](C)O)n2)cc1 (stereo partly shown) [Example V12] | 0.003 µM | 0.032 µM
C[C@@H](O)[C@@H](C)Oc1nc(Nc2ccc(S(=N)(=O)C3CC3)cc2)ncc1Br (single isomer, unassigned) [Example V14] | 0.004 µM | 0.091 µM

Source: patent publication US8735412B2, “Sulfoximine-substituted anilinopyrimidine derivatives as CDK inhibitors, the production thereof, and use as medicine” (Bayer Intellectual Property GmbH, priority 2008, dated 2014)
